Laboratory results: patent US20240156094A1, “MELATONIN COMPOSITION WITH METALS AND A METHOD FOR ENHANCING ENZYMATIC REACTIONS AND METABOLIC PATHWAYS IN PLANTS” (FERTIS INDIA PVT. LTD., priority 2021, published 2024)

Assays:
Type in all cases: in vivo
paddy grains = experiment: Analysis of micronutrient absorption levels in paddy grains by ICP; conditions: paddy grain powder, acid digest
Description: Analysis of Micronutrients in Paddy Samples by ICP (Inductive Coupled Plasma) Equipment.
The method include the steps of:— • 1. 1 gm of grain powder was added to 60 ml of perchloric acid and Nitric acid (9:1) and were digested overnight. • 2. Heat the mixtures at 100 c for 2 hours until vapors change from red to white color. • 3. The resultant solution was filtered through a Whatman paper and makeup to 100 ml with 1% nitric acid. • 4. The solution was tested for micronutrients by ICP.

plants [1] = experiment: Total polyphenol content (Folin-Ciocalteu, absorbance at 765 nm); conditions: 1 g test sample, 70% methanol extract
Description: Total polyphenol content were estimated by performing the following steps:— • 10-15 ml of 70% MeOH (70 ml methanol: 30 ml water) were added to 1 g of test sample • Filter through whatman filter paper 1 and was made up to 25 ml with 70% methanol. • 5 ml of folin ciocalteu's phenol reagent were added. • Incubation for 5 mins. • 4 ml of 7.5% Na2CO3 were added and incubated for 1 hr. • absorbance was measured at 765 nm.

plants [2] = experiment: Total protein content (Lowry method, absorbance at 660 nm); conditions: 1 g of sample in 25 ml
Description: Total protein content in the sample content were estimated by performing Lowry method which include the following steps:— • 1 g of samples in 25 ml were filtered through whatman filter paper 1 • 4.5 ml of a reagent comprising NaOH, sodium potassium tartrate, and CuSO4.5H2O were added and incubated for 10 mins. • After incubation, 0.5 ml of Folin-Ciocalteu's phenol reagent were added and incubated for 30 mins. • Absorbance was measured with UV Vis Spectrophotometer At 660 nm and a standard graph was plotted.

COc1ccc2[nH]cc(CCNC(C)=O)c2c1 [Melatonin, N-Acetyl-5-methoxytryptamine]
Al (paddy grains): 241.3 ppm | B (paddy grains): 40.5 ppm | Ca (paddy grains): 405.7 ppm | Co (paddy grains): 15.4 ppm | Fe (paddy grains): 257.9 ppm | Mg (paddy grains): 697.2 ppm | Mn (paddy grains): 42.5 ppm | Zn (paddy grains): 29.1 ppm | Total Phenol content in ppm (plants [1]): 18.6 ppm | Total Protein content in % (plants [2]): 0.076%
